Values of other authors, collected in US10548906B2, “Methods of promoting hepatic regeneration” (Intercept Pharmaceuticals, Inc., priority 2015, dated 2020).

How the values were obtained:
[1] = tested on: mice; conditions: diet enriched with cholic acid, FXR dependent; cited from earlier work
[2] = tested on: cholestatic animals; conditions: cited from earlier work
[3] = tested on: Ntcp; conditions: mice with intrahepatic (but not extrahepatic) cholestasis; cited from earlier work

Row | Compound | biliary injury [2] | also measured
1 | C[C@H](CCC(=O)O)[C@H]1CC[C@H]2[C@@H]3[C@H](O)C[C@@H]4C[C@H](O)CC[C@]4(C)[C@H]3C[C@H](O)[C@]12C [cholic acid] | – | liver growth [1]: induced spontaneous liver growth
2 | Cc1c(-c2cnccn2)ssc1=S [oltipraz] | increase in biliary injury | –
3 | C[C@H](CCC(=O)O)[C@H]1CC[C@H]2[C@@H]3[C@@H](O)C[C@@H]4C[C@H](O)CC[C@]4(C)[C@H]3CC[C@]12C [ursodeoxycholic acid] | increase in biliary injury | –
4 | CC(C)c1onc(-c2c(Cl)cccc2Cl)c1COc1ccc(/C=C/c2cccc(C(=O)O)c2)c(Cl)c1 [GW4064] | – | Ntcp regulation [3]: loss of Ntcp suppression
